Results published in patent US5866570A, “Treatment of vascular leakage and related syndrome such as septic shock by administration of metalloproteinase inhibitors” (Wisconsin Alumni Research Foundation, priority 1994, dated 1999).

Legend:
[1] = test system: MDA-MB-231 cells (human breast carcinoma); assay: in vitro invasion assay through matrigel (Transwell); assay type: cell-based; settings: preliminary screen
Procedure: Razoxane, various bis(hydroxylated)(2,6-dioxopiperazine)s, and various hydrophobic analogs were tested in an in vitro assay for inhibition of tumor cell penetration of a reconstituted basement membrane, matrigel, isolated from the Englegbreth-Holm-Swarm (EHS) tumor (disclosed in Kleinman et al., Biochem. (1982), 24, 6188-6193) first described by Albini et al, Cancer Res. (1987) 47, 3234-3245. An 8 μm pore filter coated with matrigel separates a lower compartment containing a chemoattractant and an upper compartment containing the cells and test compound. In particular, the following compounds were tested: razoxane, (1α, 2α, 4α, 5α)-4,4'-(4,5-dihydroxy-1,2-cyclohexanediyl)bis(2,6-piperazinedione); (1α, 2α, 4β, 5β)-4,4'-(4,5-dihydroxy-1,2-cyclohexanediyl)bis(2,6-piperazinedione);(1β, 2α,4α,5α)-4,4'-(4,5-dihydroxy-1,2-cyclohexanediyl)bis(2,6-piperazinedione); (1β, 2α, 4α,5β)-4,4'-(4,5-dihydroxy-1,2-cyclohexanediyl)bis(2,6piperazinedione); (1α, 2β, 4α,5β)-4,4'-(4,5-dihydroxy-1,2cyclohexanediyl)bis(2,6-piperazinedione); N,N'-cyclohexane-1,2-diylbis[N(2-ethoxy-2-oxoethyl)]glycine; N,N'-4-cyclohexene-1,2-diylbis[N-(2-ethoxy-2-oxoethyl)-glycine ester; (3aα, 5β, 6β, 7aα)-4,4'-(hexahydro-2,2-dimethyl1,3-benzodioxole-5,6-diyl)bis(2,6-piperazinedione); (3aα, 5α, 6α, 7aα)-4,4'-(hexahydro-2,2-dimethyl-1,3-benzodioxole-5,6-diyl)bis(2,6- piperazinedione); (3aα, 5α, 6β, 7aα)-4,4'-(hexahydro-2,2-dimethyl-1,3-benzodioxole-5,6-diyl)bis-2,6- piperazinedione; (3aα, 5β, 6α, 7aβ)-4,4'-(hexahydro-2,2dimethyl-1,3-benzodioxole-5,6-diyl)bis(2,6-piperazinedione); and (3aα, 5α, 6β, 7aβ)-4,4'-(hexahydro-2,2-dimethyl-1,3-benzodioxole-5,6-diyl) bis(2,6piperazinedione). Metastatic cells are able to degrade the basement membrane protein barrier and migrate through the pores of the filter whereas non-metastatic cells remain on the upper surface. The cells that pass to the under side of the filter are then counted under a microscope. […] Variations of this assay have been used to correlate this in vitro invasion with metastatic potential in vivo (Albini et al. (Id.); Hendrix et al. Cancer Letters (1987); 38, 127-247; Repesh L. A., Invasion Metastasis (1989) 9, 192-208 to select for more highly invasive cells (Teranova et al., Proc. Nat. Acad. Sci., (1986), 83, 465, 464; Tullberg et al., Invasion Metastasis, (1989), 9, 13-26; Sefer et al., Biotechniques, (1990), 9, 324-331), and to test compounds for inhibition (Nakajima et al., Cancer Res. (1989), 49, 1698-1756).
This method has been improved to increase the number of assays which may be performed and analyzed per day. In particular, such improvement comprises the use of disposable Transwells (Costar) units described by Repesh et al., Invasion Metastasis, (1989), 9, 192-208, which consist of an 8 μm pore filter attached to an insert that fits in a 24 well culture plate. Matrigel concentration is titrated from zero to complete inhibition of motility of each invasive cell line used in the assay and for each batch of matrigel. The matrigel concentration which yields 50% or greater inhibition of motility in a 6 hr assay (usually from 15 to 50 μg of protein per filter) is chosen for determination of invasion. Motility of cells through the 8 μm filters is not by passive diffusion since the pore size is smaller than the cells, and is determined in the same chamber in the absence of matrigel. Motility is stimulated two-fold by the presence of fibroblast conditioned medium (3T3 cells) as a chemoattractant (data not shown). The cell lines used are HT-1080, a human fibrosarcoma, and MDA-MB-231, a human breast carcinoma (both available from the American Type Tissue Culture). These cell lines express both the 72 kD and the 92 kD collagenase type IV as determined by zymography (data not shown).
For inhibition studies, 5×10^5 cells are plated in 200 μl of DMEM+0.1% BSA+the inhibitor (or appropriate solvent control) into the upper chamber of the Transwell. […]

mouse L cell = settings: l cells; read-out: ID50 inhibition of colony formation; cited from earlier work
mouse-embryo fibroblasts = settings: cited from earlier work

Structure (SMILES)	inhibition of invasion [1]	effect on cell motility ([1]; no matrigel)	IC50 (mouse L cell) [nM]	IC50, inhibition of [3H]thymidine incorporation (mouse-embryo fibroblasts) [µg/mL]
CC1(C)O[C@H]2C[C@H](N3CC(=O)NC(=O)C3)[C@@H](N3CC(=O)NC(=O)C3)C[C@@H]2O1 (relative stereo) [Compound 80, (3aα, 5β, 6α, 7aβ)-4,4'-(hexahydro-2,2-dimethyl-1,3-benzodioxole-5,6-diyl)bis(2,6-piperazinedione)]	inhibit invasion	without inhibiting cell motility	–	–
CC(CN1CC(=O)NC(=O)C1)N1CC(=O)NC(=O)C1 (stereo not shown) [razoxane]	–	–	3000	0.5
